Legend:
[1] = target: T1, Alpha-2B adrenergic receptor (Homo sapiens, UniProt P18089); assay: Binding affinity against Alpha-2B adrenergic receptor from human clones.
T1 sequence (P18089 whole entry): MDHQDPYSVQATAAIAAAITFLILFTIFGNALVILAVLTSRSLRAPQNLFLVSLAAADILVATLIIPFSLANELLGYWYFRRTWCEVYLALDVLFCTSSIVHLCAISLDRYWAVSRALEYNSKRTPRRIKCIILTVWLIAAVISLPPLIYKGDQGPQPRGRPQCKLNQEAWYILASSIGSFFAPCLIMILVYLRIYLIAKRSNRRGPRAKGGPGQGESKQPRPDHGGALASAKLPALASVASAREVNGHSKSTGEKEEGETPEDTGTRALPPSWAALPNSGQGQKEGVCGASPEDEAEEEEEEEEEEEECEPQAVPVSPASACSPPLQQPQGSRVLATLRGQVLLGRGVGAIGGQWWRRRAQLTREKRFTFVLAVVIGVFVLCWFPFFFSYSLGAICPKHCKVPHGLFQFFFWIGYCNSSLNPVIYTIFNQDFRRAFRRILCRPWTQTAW

[2] = target: T2, Alpha-1D adrenergic receptor (Rattus norvegicus, UniProt P23944); assay: Binding affinity against Alpha-1D adrenergic receptor, from rat clones.
T2 sequence (P23944 whole entry): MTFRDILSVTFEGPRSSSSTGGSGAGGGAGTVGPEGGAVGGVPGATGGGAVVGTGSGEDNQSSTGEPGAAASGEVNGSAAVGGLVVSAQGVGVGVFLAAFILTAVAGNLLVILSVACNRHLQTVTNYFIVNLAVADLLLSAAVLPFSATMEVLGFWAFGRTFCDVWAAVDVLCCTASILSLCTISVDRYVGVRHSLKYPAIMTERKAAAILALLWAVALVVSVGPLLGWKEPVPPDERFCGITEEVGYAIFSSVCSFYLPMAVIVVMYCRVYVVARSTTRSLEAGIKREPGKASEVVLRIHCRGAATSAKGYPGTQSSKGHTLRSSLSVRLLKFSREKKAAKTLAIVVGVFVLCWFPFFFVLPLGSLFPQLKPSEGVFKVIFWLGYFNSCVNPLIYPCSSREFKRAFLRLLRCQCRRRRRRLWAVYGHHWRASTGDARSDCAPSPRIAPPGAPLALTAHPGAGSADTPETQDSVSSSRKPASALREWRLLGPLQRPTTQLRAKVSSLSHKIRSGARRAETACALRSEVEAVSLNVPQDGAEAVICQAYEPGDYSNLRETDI

[3] = target: T3, Alpha-2C adrenergic receptor (Homo sapiens, UniProt P18825); assay: Binding affinity against Alpha-2C adrenergic receptor from human clones.
T3 sequence (P18825 whole entry): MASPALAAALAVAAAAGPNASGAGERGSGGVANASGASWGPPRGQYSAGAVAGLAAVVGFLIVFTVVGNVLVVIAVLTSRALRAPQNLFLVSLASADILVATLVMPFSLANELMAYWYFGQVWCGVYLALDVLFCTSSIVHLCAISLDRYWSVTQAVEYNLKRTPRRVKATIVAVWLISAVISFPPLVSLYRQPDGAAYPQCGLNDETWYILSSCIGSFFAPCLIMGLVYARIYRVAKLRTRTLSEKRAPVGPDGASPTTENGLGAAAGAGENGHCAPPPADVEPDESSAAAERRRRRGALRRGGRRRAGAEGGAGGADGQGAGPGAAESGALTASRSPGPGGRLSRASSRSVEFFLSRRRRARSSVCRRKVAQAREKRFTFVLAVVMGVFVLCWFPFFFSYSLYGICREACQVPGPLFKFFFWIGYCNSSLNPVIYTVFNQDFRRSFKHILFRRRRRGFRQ

[4] = target: T4, Alpha-1A adrenergic receptor (Rattus norvegicus, UniProt P43140); assay: Overall binding displacement in tissues containing only the Alpha-1A adrenergic receptor from rat submaxillary gland
T4 sequence (P43140 whole entry): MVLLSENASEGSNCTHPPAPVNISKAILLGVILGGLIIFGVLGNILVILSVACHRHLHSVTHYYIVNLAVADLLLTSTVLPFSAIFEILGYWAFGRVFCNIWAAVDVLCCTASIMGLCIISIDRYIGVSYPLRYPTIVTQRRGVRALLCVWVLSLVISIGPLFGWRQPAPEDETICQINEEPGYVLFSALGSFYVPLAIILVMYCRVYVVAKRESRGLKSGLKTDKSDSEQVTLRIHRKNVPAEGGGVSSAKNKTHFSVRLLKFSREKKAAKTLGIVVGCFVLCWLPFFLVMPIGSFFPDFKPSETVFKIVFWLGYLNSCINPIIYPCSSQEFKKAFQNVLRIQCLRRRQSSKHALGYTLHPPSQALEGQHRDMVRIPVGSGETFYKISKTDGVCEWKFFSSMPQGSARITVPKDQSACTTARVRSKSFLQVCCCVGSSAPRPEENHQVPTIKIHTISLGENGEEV

[5] = target: T5, Alpha-1A adrenergic receptor (Homo sapiens, UniProt P35348); assay: The compound was tested for binding affinity against Alpha-1A adrenergic receptor from human clones.
T5 sequence (P35348 whole entry): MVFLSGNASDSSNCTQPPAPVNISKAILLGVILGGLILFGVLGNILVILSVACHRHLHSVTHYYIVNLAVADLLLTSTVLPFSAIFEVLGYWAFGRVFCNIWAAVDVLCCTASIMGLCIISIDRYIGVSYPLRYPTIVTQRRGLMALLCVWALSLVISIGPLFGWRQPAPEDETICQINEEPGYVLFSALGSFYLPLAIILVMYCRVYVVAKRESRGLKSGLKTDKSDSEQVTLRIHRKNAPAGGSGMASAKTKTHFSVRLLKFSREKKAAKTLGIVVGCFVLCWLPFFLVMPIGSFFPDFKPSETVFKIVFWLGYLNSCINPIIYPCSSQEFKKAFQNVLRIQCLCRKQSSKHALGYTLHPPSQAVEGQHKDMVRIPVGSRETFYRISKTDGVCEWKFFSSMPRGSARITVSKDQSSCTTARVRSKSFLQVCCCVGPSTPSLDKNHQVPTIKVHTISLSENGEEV

SMILES	Ki [1]	Ki [2]	Ki [3]	Ki [4]	Ki [5]
COc1cccc(OC)c1OCCNCC1COc2ccccc2O1 (stereo not drawn)	28 nM	1.2 nM	0.8 nM	0.08 nM	
COc1ccccc1N1CCN(CCCNc2c(C)c(=O)n(C)c(=O)n2C)CC1	406 nM	186 nM	131 nM	0.7 nM	2.3 nM
O=C(NC1CCN(CCc2c[nH]c3ccccc23)CC1)c1ccccc1 [INDORAMIN]	528 nM	611 nM	476 nM		3.7 nM
